Test results from EPA's ToxRefDB 2.

What was measured:
dog [1] = details: Subchronic oral toxicity in nonrodent, beagle, Capsule, dose end: 90 day, group: systemic, systemic / clinical chemistry / [other] / [other] + systemic / clinical chemistry / alkaline phosphatase (alp/alk) / alkaline phosphatase (…
rat [2] = details: Multigenerational reproductive toxicity study, sprague dawley, Oral, Feed, dose end: 2 generation
mouse [3] = details: Carcinogenicity, cd1, Oral, Feed, dose end: 78 week, group: systemic
rat [4] = details: Subchronic oral toxicity in rodents, other, Feed, dose end: 90 day, group: systemic, systemic / in life observation / body weight / body weight gain + systemic / pathology microscopic / kidney / regeneration + systemic / …
rat [5] = details: Combined chronic toxicity/carcinogenicity, sprague dawley, Oral, Feed, dose end: 24 month, group: systemic
rat [6] = details: Prenatal developmental toxicity study, other, Oral, Gavage/Intubation, dose end: 15 GD
rat [7] = details: Subchronic oral toxicity in rodents, sprague dawley, Feed, dose end: 90 day, group: systemic, systemic / organ weight / kidney / absolute + systemic / organ weight / kidney / relative to body weight + systemic / organ weight / kidney…
dog [8] = details: Subchronic oral toxicity in nonrodent, beagle, Feed, dose end: 90 day, group: systemic, systemic / clinical chemistry / alkaline phosphatase (alp/alk) / alkaline phosphatase (alp/alk) + systemic / organ weight / liver / absolute…
rat [9] = details: Subchronic oral toxicity in rodents, other, Feed, dose end: 90 day, group: systemic
rat [10] = details: Combined chronic toxicity/carcinogenicity, fischer, Oral, Feed, dose end: 24 month, group: systemic
dog [11] = details: Subchronic oral toxicity in nonrodent, beagle, Feed, dose end: 13 week, group: systemic, systemic / pathology microscopic / intestine large / vacuolization + systemic / pathology microscopic / intestine small / vacuolization + …
mouse [12] = details: Carcinogenicity, cd1, Oral, Feed, dose end: 18 month, group: systemic
mouse [13] = details: Subchronic oral toxicity in rodents, cd1, Feed, dose end: 13 week, group: systemic, systemic / pathology microscopic / adrenal gland / vacuolization cytoplasmic + systemic / pathology microscopic / bone marrow / …
rat [14] = details: Subchronic oral toxicity in rodents, fischer, Feed, dose end: 13 week, group: systemic, systemic / pathology microscopic / thyroid gland / vacuolization + systemic / organ weight / heart / nos
rat [15] = details: Subchronic oral toxicity in rodents, fischer, Feed, dose end: 3 month, group: systemic
rat [16] = details: Multigenerational reproductive toxicity study, sprague dawley, Oral, Feed, dose end: 2 generation; remark: listed apart in the source
dog [17] = details: Chronic toxicity, beagle, Oral, Feed, dose end: 52 week, group: systemic
[18] = group: offspring, developmental / offspring survival late / [other] / [other] + developmental / offspring survival late / viability index / viability index + …
[19] = group: offspring, systemic / pathology microscopic / kidney / dilatation
[20] = group: parental, systemic / in life observation / body weight / body weight + systemic / in life observation / food consumption / food consumption + systemic…
[21] = systemic / in life observation / mortality / mortality + systemic / organ weight / kidney / absolute + systemic / organ weight / kidney / …
[22] = systemic / in life observation / body weight / body weight + systemic / in life observation / body weight / body weight gain + systemic / in…
[23] = group: developmental, developmental / developmental malformation / aortic arch / retroesophageal + developmental / developmental malformation / bone / misshapen…
[24] = group: maternal, systemic / in life observation / body weight / body weight + systemic / in life observation / body weight / body weight gain
[25] = group: maternal, systemic / in life observation / body weight / body weight + systemic / in life observation / body weight / body weight gain + reproductive…
[26] = systemic / pathology microscopic / liver / inclusion body intracytoplasmic
[27] = systemic / pathology microscopic / thyroid gland / vacuolization
[28] = systemic / pathology microscopic / thyroid gland / vacuolization + systemic / clinical chemistry / alkaline phosphatase (alp/alk) / alkaline…
[29] = systemic / pathology microscopic / heart / cardiomyopathy + systemic / pathology microscopic / lymph node / histiocytosis + systemic / …
[30] = systemic / pathology microscopic / lymph node / histiocytosis + systemic / pathology microscopic / spleen / histiocytosis + systemic / …
[31] = group: offspring, systemic / in life observation / body weight / offspring (pup) weight
[32] = group: parental, systemic / organ weight / heart / absolute + systemic / organ weight / heart / relative to body weight + systemic / organ weight / kidney / …
[33] = group: reproductive, reproductive / offspring survival early / litter size / litter size + reproductive / offspring survival early / birth index / live birth …
[34] = systemic / pathology microscopic / lymph node / vacuolization + systemic / pathology microscopic / spleen / vacuolization + systemic / organ…

Structure (SMILES): O=C(O)CCCOc1ccc(Cl)cc1Cl [2,4-DB]
- LEL (dog [1]): 25 mg/kg/day
- LOAEL (dog [1]): 25 mg/kg/day
- NEL (dog [1]): 8 mg/kg/day
- NOAEL (dog [1]): 8 mg/kg/day
- LOAEL (rat [2]; [18]): 112 mg/kg/day
- NOAEL (rat [2]; [18]): 25 mg/kg/day
- LEL (rat [2]; [19]): 25 mg/kg/day
- NEL (rat [2]; [19]): 5 mg/kg/day
- LEL (rat [2]; [20]): 112 mg/kg/day
- LOAEL (rat [2]; [20]): 112 mg/kg/day
- NEL (rat [2]; [20]): 25 mg/kg/day
- NOAEL (rat [2]; [20]): 25 mg/kg/day
- LOAEL (mouse [3]; [21]): 112 mg/kg/day
- NOAEL (mouse [3]; [21]): 37.5 mg/kg/day
- LEL (mouse [3]; systemic / in life observation / mortality / mortality + systemic / pathology microscopic / kidney / amyloid deposition + systemic / …): 112 mg/kg/day
- NEL (mouse [3]; systemic / organ weight / kidney / absolute + systemic / organ weight / kidney / relative to body weight + systemic / organ weight / liver…): 37.5 mg/kg/day
- LEL (rat [4]): 50 mg/kg/day
- LOAEL (rat [4]): 50 mg/kg/day
- NEL (rat [4]): 15.8 mg/kg/day
- NOAEL (rat [4]): 15.8 mg/kg/day
- LOAEL (rat [5]; [22]): 30 mg/kg/day
- NOAEL (rat [5]; [22]): 3 mg/kg/day
- NEL (rat [5]; systemic / organ weight / liver / absolute + systemic / organ weight / heart / absolute + systemic / organ weight / spleen / absolute + …): 90 mg/kg/day
- LEL (rat [6]; [23]): 125 mg/kg/day
- LOAEL (rat [6]; [23]): 125 mg/kg/day
- NEL (rat [6]; [23]): 62.5 mg/kg/day
- NOAEL (rat [6]; [23]): 62.5 mg/kg/day
- LEL (rat [6]; [24]): 62.5 mg/kg/day
- LOAEL (rat [6]; [24]): 62.5 mg/kg/day
- NEL (rat [6]; [25]): 31.2 mg/kg/day
- NOAEL (rat [6]; [25]): 31.2 mg/kg/day
- LEL (rat [7]): 41.9 mg/kg/day
- LOAEL (rat [7]): 41.9 mg/kg/day
- NEL (rat [7]): 4.16 mg/kg/day
- NOAEL (rat [7]): 4.16 mg/kg/day

Structure (SMILES): COCC(=O)N(c1c(C)cccc1C)[C@H](C)C(=O)OC [Metalaxyl-M]
- LEL (dog [8]): 38.6 mg/kg/day
- LOAEL (dog [8]): 38.6 mg/kg/day
- NEL (dog [8]): 7.25 mg/kg/day
- NOAEL (dog [8]): 7.25 mg/kg/day
- LEL (rat [9]; [26]): 44.8 mg/kg/day
- NEL (rat [9]; [26]): 16.8 mg/kg/day
- LOAEL (rat [9]; systemic / pathology microscopic / liver / infiltration cellular + systemic / pathology microscopic / liver / inclusion body …): 90.5 mg/kg/day

Structure (SMILES): CC[C@H]1CCC[C@H](O[C@H]2CC[C@H](N(C)C)[C@@H](C)O2)[C@@H](C)C(=O)C2=C[C@@H]3[C@@H](C=C(C)[C@@H]4C[C@@H](O[C@@H]5O[C@@H](C)[C@H](OC)[C@@H](OC)[C@H]5OC)C[C@@H]34)[C@@H]2CC(=O)O1.CC[C@H]1CCC[C@H](O[C@H]2CC[C@H](N(C)C)[C@@H](C)O2)[C@@H](C)C(=O)C2=C[C@@H]3[C@@H](C=C[C@@H]4C[C@@H](O[C@@H]5O[C@@H](C)[C@H](OC)[C@@H](OC)[C@H]5OC)C[C@@H]34)[C@@H]2CC(=O)O1 [Spinosad]
- LEL (rat [10]; [27]): 9.5 mg/kg/day
- LOAEL (rat [10]; [27]): 24.1 mg/kg/day
- NEL (rat [10]; [28]): 2.4 mg/kg/day
- NOAEL (rat [10]; [28]): 9.5 mg/kg/day
- LEL (dog [11]): 9.73 mg/kg/day
- LOAEL (dog [11]): 9.73 mg/kg/day
- NEL (dog [11]): 4.89 mg/kg/day
- NOAEL (dog [11]): 4.89 mg/kg/day
- LOAEL (mouse [12]; systemic / hematology / leukocyte (wbc) count differential / leukocyte (wbc)): 41.5 mg/kg/day
- NOAEL (mouse [12]; systemic / hematology / leukocyte (wbc) count differential / leukocyte (wbc) + systemic / organ weight / liver / relative to body weight + …): 1.3 mg/kg/day
- NEL (mouse [12]; systemic / organ weight / brain / relative to body weight): 1.1 mg/kg/day
- LEL (mouse [12]; systemic / organ weight / brain / relative to body weight + systemic / in life observation / body weight / body weight + systemic / in life …): 32.7 mg/kg/day
- LEL (mouse [13]): 22.5 mg/kg/day
- LOAEL (mouse [13]): 22.5 mg/kg/day
- NEL (mouse [13]): 7.5 mg/kg/day
- NOAEL (mouse [13]): 7.5 mg/kg/day
- LEL (rat [14]): 42.7 mg/kg/day
- LOAEL (rat [14]): > 42.7 mg/kg/day
- NOAEL (rat [14]): ≥ 42.7 mg/kg/day
- LOAEL (rat [15]; [29]): 68.5 mg/kg/day
- NOAEL (rat [15]; [29]): 33.9 mg/kg/day
- LEL (rat [15]; [30]): 33.9 mg/kg/day
- NEL (rat [15]; [30]): < 33.9 mg/kg/day
- LEL (rat [16]; [31]): 10 mg/kg/day
- NEL (rat [16]; [31]): 3 mg/kg/day
- NOAEL (rat [16]; group: offspring, systemic / in life observation / clinical signs / hemorrhagic perineal discharge): 10 mg/kg/day
- LOAEL (rat [16]; group: offspring, systemic / in life observation / clinical signs / hemorrhagic perineal discharge + systemic / in life observation / body weight / offspring…): 100 mg/kg/day
- LEL (rat [16]; [32]): 100 mg/kg/day
- LOAEL (rat [16]; [32]): 100 mg/kg/day
- NEL (rat [16]; [32]): 10 mg/kg/day
- NOAEL (rat [16]; [32]): 10 mg/kg/day
- NEL (rat [16]; [33]): 10 mg/kg/day
- NOAEL (rat [16]; [33]): 10 mg/kg/day
- LOAEL (rat [16]; group: reproductive, reproductive / offspring survival early / litter size / litter size + reproductive / reproductive performance / dystocia / dystocia): 100 mg/kg/day
- LEL (rat [16]; group: reproductive, reproductive / offspring survival early / litter size / litter size + reproductive / reproductive performance / dystocia / dystocia + …): 100 mg/kg/day
- LOAEL (dog [17]; systemic / pathology microscopic / lymph node / vacuolization + systemic / pathology microscopic / spleen / vacuolization): 8.22 mg/kg/day
- LEL (dog [17]; [34]): 8.22 mg/kg/day
- NEL (dog [17]; [34]): 2.72 mg/kg/day
- NOAEL (dog [17]; [34]): 2.72 mg/kg/day
